The values below come from patent publication US20110044943A1, “Anti-Viral Compounds, Compositions, And Methods Of Use” (priority 2007, published 2011).

Usually inhibition stands for the change of the read-out against control, counted positive when it falls.

This assay can be described thus: Replicon Assay (luciferase, ET cell line). Type of assay: cell-based, HCV. The settings on record: Hepatitis C virus; tested at 10 μM; inhibition of replication relative to no compound control; luciferase 48-72 hours. The source says: A cell line, ET (Huh-lucubineo-ET) was used for screening of compounds, or pharmaceutically acceptable salts or solvates, described herein for inhibition of HCV RNA dependent RNA polymerase. The ET cell line was stably transfected with RNA transcripts harboring a I389luc-ubi-neo/NS3-3′/ET; replicon with firefly luciferase-ubiquitin-neomycin phosphotransferase fusion protein and EMCV-IRES driven NS3-5B polyprotein containing the cell culture adaptive mutations (E1202G; T1280I; K1846T) (Krieger at al, 2001 and unpublished). The ET cells were grown in DMEM, supplemented with 10% fetal calf serum, 2 mM Glutamine, Penicillin (100 IU/mL)/Streptomycin (100 μg/mL), 1× nonessential amino acids, and 250 μg/mL G418 (“Geneticin”). They were all available through Life Technologies (Bethesda, Md.). The cells were plated at 0.5-1.0×10^4 cells/well in the 96 well plates and incubated for 24 hrs before adding the test compounds. […] Luciferase activity was measured 48-72 hours later by adding a lysis buffer and the substrate (Catalog number Glo-lysis buffer E2661 and Bright-Glo luciferase system E2620 Promega, Madison, Wis.). […] Under the same condition, cytotoxicity of the compounds was determined using cell proliferation reagent, WST-1 (Roche, Germany). […] EC50 and similarly TC50 values were calculated by fitting % inhibition at each concentration to the following equation: […]
(Replicon systems follow genome replication, usually without infectious particles.)

On to `Fc1cccc(-c2nc3cnn(Cc4cc(-c5ccc(Oc6ccccn6)cc5)no4)cc-3n2)c1F` [Compound 217], for which 10 µM produced 85.3% inhibition.
